The subject of assay [1] is Rattus norvegicus. The experiment in a line: Eosinophil accumulation in sensitized brown norway rats at 3.2 mg/kg dose (No of rats = 5). The format is functional.
Assay [2] deals with T1, 3',5'-cyclic-AMP phosphodiesterase 4B (Rattus norvegicus) (UniProt P14646).
T1 sequence (whole entry): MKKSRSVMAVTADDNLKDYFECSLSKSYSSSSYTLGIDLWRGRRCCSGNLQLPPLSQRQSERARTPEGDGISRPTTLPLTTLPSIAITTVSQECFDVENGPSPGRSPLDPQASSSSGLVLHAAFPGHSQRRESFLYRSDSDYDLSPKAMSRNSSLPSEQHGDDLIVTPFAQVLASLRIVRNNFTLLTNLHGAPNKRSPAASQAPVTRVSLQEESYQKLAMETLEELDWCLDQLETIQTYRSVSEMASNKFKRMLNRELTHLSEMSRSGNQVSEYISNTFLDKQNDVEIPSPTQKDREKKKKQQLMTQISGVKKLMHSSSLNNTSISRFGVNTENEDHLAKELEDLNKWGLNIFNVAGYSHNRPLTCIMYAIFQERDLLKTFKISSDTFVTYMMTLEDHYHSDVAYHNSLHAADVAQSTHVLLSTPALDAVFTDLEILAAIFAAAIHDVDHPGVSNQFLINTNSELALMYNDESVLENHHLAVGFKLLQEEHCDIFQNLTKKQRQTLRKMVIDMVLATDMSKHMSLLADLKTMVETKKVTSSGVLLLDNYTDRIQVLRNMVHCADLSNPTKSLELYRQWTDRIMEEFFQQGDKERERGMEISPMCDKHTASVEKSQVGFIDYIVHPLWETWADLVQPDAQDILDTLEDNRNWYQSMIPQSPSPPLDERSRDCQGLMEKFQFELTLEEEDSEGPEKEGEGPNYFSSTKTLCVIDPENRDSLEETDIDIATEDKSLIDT
The experiment in a line: Inhibition of phosphodiesterase (PDE) 4B.

The target in assay [3] is Phosphodiesterase 3 (Homo sapiens) (UniProt Q14432+Q13370). The experiment in a line: Inhibition of phosphodiesterase (PDE) 3. The class given is protein assay.
Assay [4] relates to PBMC. Description: Inhibition of anti-CD3 induced IL-4 release by human peripheral blood mononuclear cells. The class given is functional.
Assay [5] deals with 3',5'-cyclic-AMP phosphodiesterase 4A (Homo sapiens) (UniProt P27815).
Chain of 3',5'-cyclic-AMP phosphodiesterase 4A (Homo sapiens) (P27815 whole entry): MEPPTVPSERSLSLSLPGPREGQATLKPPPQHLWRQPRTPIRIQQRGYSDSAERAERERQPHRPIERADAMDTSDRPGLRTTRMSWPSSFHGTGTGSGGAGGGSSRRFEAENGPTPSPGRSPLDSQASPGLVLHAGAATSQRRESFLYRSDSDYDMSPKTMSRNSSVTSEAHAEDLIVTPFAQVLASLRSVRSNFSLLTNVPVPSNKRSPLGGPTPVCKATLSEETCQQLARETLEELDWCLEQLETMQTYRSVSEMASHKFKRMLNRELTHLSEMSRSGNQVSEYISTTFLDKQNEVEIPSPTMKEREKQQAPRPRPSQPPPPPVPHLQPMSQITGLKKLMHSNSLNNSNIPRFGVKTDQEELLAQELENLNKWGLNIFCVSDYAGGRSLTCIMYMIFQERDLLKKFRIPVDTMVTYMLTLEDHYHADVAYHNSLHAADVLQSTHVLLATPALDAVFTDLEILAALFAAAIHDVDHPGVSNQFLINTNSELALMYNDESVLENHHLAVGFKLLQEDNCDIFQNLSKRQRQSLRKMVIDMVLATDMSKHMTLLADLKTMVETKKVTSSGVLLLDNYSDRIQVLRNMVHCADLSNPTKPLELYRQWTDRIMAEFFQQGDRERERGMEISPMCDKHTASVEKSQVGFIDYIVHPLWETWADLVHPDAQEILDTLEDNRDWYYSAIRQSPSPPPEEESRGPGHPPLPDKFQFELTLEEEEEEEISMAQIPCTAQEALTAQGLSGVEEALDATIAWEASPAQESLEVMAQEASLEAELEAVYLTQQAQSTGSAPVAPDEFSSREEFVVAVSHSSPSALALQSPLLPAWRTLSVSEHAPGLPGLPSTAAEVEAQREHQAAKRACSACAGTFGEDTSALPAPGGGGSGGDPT
Description: Inhibition of phosphodiesterase (PDE) 4A
The next assay is filed under the species Homo sapiens. The experiment in a line: Inhibition of fMLP induced oxidative burst in human eosinophils. The class given is functional.
In assay [6] the target is 3',5'-cyclic-AMP phosphodiesterase 4D (Homo sapiens) (UniProt Q08499). Description: Inhibition of phosphodiesterase (PDE) 4D.
Chain of 3',5'-cyclic-AMP phosphodiesterase 4D (Homo sapiens) (Q08499 whole entry): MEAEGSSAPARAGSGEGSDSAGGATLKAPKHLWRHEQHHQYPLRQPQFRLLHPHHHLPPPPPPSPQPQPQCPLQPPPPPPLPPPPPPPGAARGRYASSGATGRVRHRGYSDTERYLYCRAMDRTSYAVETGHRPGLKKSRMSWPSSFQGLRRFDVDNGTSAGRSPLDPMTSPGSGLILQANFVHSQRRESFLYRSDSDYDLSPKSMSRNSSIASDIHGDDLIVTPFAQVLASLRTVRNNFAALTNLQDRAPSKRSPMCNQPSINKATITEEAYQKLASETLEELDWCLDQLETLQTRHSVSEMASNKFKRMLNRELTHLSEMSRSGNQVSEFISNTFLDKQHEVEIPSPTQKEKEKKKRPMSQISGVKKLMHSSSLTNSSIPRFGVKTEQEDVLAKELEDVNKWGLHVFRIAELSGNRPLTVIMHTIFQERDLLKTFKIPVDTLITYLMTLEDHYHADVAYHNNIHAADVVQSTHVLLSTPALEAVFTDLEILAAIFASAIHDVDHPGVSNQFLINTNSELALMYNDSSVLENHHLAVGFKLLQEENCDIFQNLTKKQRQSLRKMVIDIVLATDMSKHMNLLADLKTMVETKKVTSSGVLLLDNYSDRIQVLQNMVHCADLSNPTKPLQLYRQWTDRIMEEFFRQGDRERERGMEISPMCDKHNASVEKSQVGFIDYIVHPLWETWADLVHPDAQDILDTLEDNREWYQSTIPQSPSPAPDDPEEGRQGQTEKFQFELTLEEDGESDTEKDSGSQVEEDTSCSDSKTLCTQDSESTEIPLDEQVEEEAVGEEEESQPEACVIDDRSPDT
The test system of assay [7] is PBMC. Description: Inhibition of LPS induced TNF-alpha release by human peripheral blood mononuclear cells. The format is functional.
Assay [8] relates to PBMC. Description: Inhibition of anti-CD3 induced IFN-gamma-release in human peripheral blood mononuclear cells. The format is functional.
For assay [9], the system named is PBMC. The experiment in a line: Inhibition of anti-CD3 induced T-cell proliferation in human peripheral blood mononuclear cells. The format is functional.
The nature of assay [10]: Inhibition of rolipram binding.
Assay [11] deals with Rattus norvegicus. The experiment in a line: Eosinophil accumulation in sensitized brown norway rats at 1 mg/kg dose (No of rats = 5). The format is functional.

`COc1cccc(COc2cc(C(=O)O)cc(N3CC(c4ccc(OC)c(OC5CCCC5)c4)CC3=O)c2)c1` (stereo unspecified): the Activation with Rattus norvegicus [1] came to 5 mU ml-1. Also, the pIC50 in [2] was 7.7; in [3], under 4; in the assay on PBMC [4] it was 6.6; in [5] it was 7.9; in the assay listed under Homo sapiens, 6.6; in assay [6], 7.9. Also, the pIC50 with PBMC [7] was 7.4; in the assay with PBMC [8], 7.5; with PBMC [9] it was 7.2; in assay [10], 7.5.
Turning to `COc1cccc(COc2cc(C(=O)NN(C)C)cc(N3CC(c4ccc(OC)c(OC5CCCC5)c4)CC3=O)c2)c1` (stereo unspecified), the pIC50 is 8.3 in assay [2]; under 4 in assay [3]; 7.6 with PBMC [4]; 8.6 in [5]; 7.3 in the assay listed under Homo sapiens; 8.8 in assay [6]. The pIC50 in the assay with PBMC [7] amounted to 7.7; with PBMC [8], 7.8; with PBMC [9], 7.3; in assay [10] it was 8.3. Also, in the assay on Rattus norvegicus [11], the Activation amounted to 10 mU ml-1.
For the compound `COc1cccc(COc2cccc(N3CC(c4ccc(OC)c(OC5CCCC5)c4)CC3=O)c2)c1` (stereo unspecified), the pIC50 in assay [2] was 8.6; in assay [3], under 4; in assay [5] it was 8.2; in [6] it was 8.1; in assay [10], 8.1.
Take `COc1ccc(C2CNC(=O)C2)cc1OC1CCCC1` (stereo unspecified) [ROLIPRAM]: the pIC50 turned out to be 6.3 in the assay on PBMC [4], 6.1 in the assay listed under Homo sapiens, 7.1 in the assay on PBMC [7] and 5.6 in the assay with PBMC [8].

Broadly, the pIC50 is the negative decadic logarithm of the IC50, by convention in mol/L. A lower pIC50 goes with a high IC50.

These data come from ChEMBL document CHEMBL1130674, “N-arylrolipram derivatives as potent and selective PDE4 inhibitors” (1998).
